This is an account of results in patent US12247011B2, “Selective inhibitors of NLRP3 inflammasome” (NodThera Limited, priority 2017, dated 2025).

The term IC50 denotes the midpoint of a concentration-inhibition curve.

Bounds are passed on as bounds.

The assay concerns IL-1β release upon NLRP3 activation in peripheral blood mononuclear cells (PBMC). The assay can be described thus: PBMC IC50 Determination Assay. As to conditions: Homo sapiens; LPS-primed PBMC, 30 min compound, stimulated with ATP (5 mM) or nigericin (10 μM) for 1 h; IL-1β ELISA; read-out: PBMC IC50. The assay is classed as cell-based. As to the method:
PBMC IC50 Determination Assay
The compounds of the present disclosure were tested for their inhibitory activity against IL-1β release upon NLRP3 activation in peripheral blood mononuclear cells (PBMC).
Isolated cells were seeded into the wells of a 96-well plate and incubated for 3 h with lipopolysaccharide (LPS). Following medium exchange, the compounds of the present disclosure were added (a single compound per well) and the cells were incubated for 30 min. Next, the cells were stimulated either with ATP (5 mM) or nigericin (10 μM) for 1 h and the cell culture media from the wells were collected for further analysis.
The release of IL-1β into the media was determined by a quantitative detection of IL-1β in the media using an IL-1β enzyme-linked immunosorbent assay (ELISA) Ready-SET-Go!, eBioscience cat. […] Subsequently, plates were blocked with blocking buffer for 1 h at room temperature (rt) and after washing with a buffer (PBS with 0.05% Tween-20) incubated with protein standard and culture media. […] Plates were washed and incubated with HRP-streptavidin for 30 min at rt and washed again. The signal was developed after addition of 3,3,5,5-tetramethylbenzidine-peroxidase (TMB) until colour appeared and the reaction was stopped by 2 M H2SO4. A microplate spectrophotometer (BioTek) was used to detect signals with 450 nm. The detection range of IL-1β ELISA was 2-150 ng/ml.
(In general: In an ELISA, binding on a coated surface is turned into a signal by an enzyme label.)
For the compound `CC(C)OC(=O)C(Cc1ncccn1)OC(=O)N[C@H]1CCCC[C@@H]1C` (relative stereo) [Compound 129, Propan-2-yl 2-{[(trans-2-methylcyclohexyl)carbamoyl]oxy}-3-(pyrimidin-2-yl)propanoate], the IC50 fell in the range of 1000 to 10000 nM.

Turning to `CCOC(=O)COC(=O)Nc1c(F)cccc1F` [Compound 2, Ethyl 2-{[(2,6-difluorophenyl)carbamoyl]oxy}acetate], the IC50 lay within 1000 to 10000 nM.

For the compound `CCOC(=O)COC(=O)Nc1c(Cl)cccc1Cl` [Compound 3, Ethyl 2-{[(2,6-dichlorophenyl)carbamoyl]oxy}acetate], the IC50 is 100 to 1000 nM.

For the compound `CCOC(=O)COC(=O)Nc1cccc2ccccc12` [Compound 4, Ethyl 2-{[(naphthalen-1-yl)carbamoyl]oxy}acetate], the IC50 lay within 1000 to 10000 nM.

Take `CCOC(=O)COC(=O)Nc1cccc2c1OC(C)(C)C2` [Compound 5, Ethyl 2-{[(2,2-dimethyl-2,3-dihydro-1-benzofuran-7-yl)carbamoyl]oxy}acetate]: the IC50 was over 10000 nM.

Take `CCOC(=O)C(COC)OC(=O)Nc1c2c(cc3c1CCC3)CCC2` (stereo not drawn) [Compound 6, Ethyl 2-{[(1,2,3,5,6,7-hexahydro-s-indacen-4-yl)carbamoyl]oxy}-3-methoxypropanoate]: the IC50 fell in the range of 10 to 100 nM.

Turning to `CCOC(=O)COC(=O)Nc1cc(C(F)(F)F)ccc1F` [Compound 7, Ethyl 2-({[2-fluoro-5-(trifluoromethyl)phenyl]carbamoyl}oxy)acetate], the IC50 lay within 1000 to 10000 nM.

As to `CCOC(=O)COC(=O)Nc1c(C)cccc1C` [Compound 8, Ethyl 2-{[(2,6-dimethylphenyl)carbamoyl]oxy}acetate], the IC50 lay within 100 to 1000 nM.

On to `CCOC(=O)COC(=O)Nc1c(CC)cccc1CC` [Compound 9, Ethyl 2-{[(2,6-diethylphenyl)carbamoyl]oxy}acetate], for which the IC50 lay within 100 to 1000 nM.

With `CCOC(=O)COC(=O)Nc1c(C)cccc1Cl` [Compound 10], the IC50 was 1000 to 10000 nM.

Turning to `CCOC(=O)COC(=O)Nc1ccccc1C#N` [Compound 11, Ethyl 2-{[(2-cyanophenyl)carbamoyl]oxy}acetate], the half-inhibitory concentration (IC50) fell in the range of 1000 to 10000 nM.

As for `CCOC(=O)C(Cc1cccnc1)OC(=O)Nc1c2c(cc3c1CCC3)CCC2` (stereo not drawn) [Compound 12, Ethyl 2-{[(1,2,3,5,6,7-hexahydro-s-indacen-4-yl)carbamoyl]oxy}-3-(pyridin-3-yl)propanoate], the IC50 is 10 to 100 nM.

On to `CCOC(=O)COC(=O)Nc1ccccc1C(C)(C)C` [Compound 13, Ethyl 2-{[(2-tert-butylphenyl)carbamoyl]oxy}acetate], for which the IC50 was in the range of 1000 to 10000 nM.

For `CCOC(=O)COC(=O)Nc1c(C)cc(C)cc1C` [Compound 14, Ethyl 2-((mesitylcarbamoyl)oxy)acetate], the IC50 was 1000 to 10000 nM.

`CCOC(=O)COC(=O)Nc1ccccc1C(C)C` [Compound 15, Ethyl 2-(((2-isopropylphenyl)carbamoyl)oxy)acetate]: the IC50 was in the range of 1000 to 10000 nM.

`CCOC(=O)COC(=O)Nc1c(C)cccc1CC` [Compound 16, Ethyl 2-(((2-ethyl-6-methylphenyl)carbamoyl)oxy)acetate]: the IC50 lay in the range of 100 to 1000 nM.

As to `CCOC(=O)C(Cc1ccccc1)OC(=O)Nc1c2c(cc3c1CCC3)CCC2` (stereo not drawn) [Compound 17, Ethyl 2-(((1,2,3,5,6,7-hexahydro-s-indacen-4-yl)carbamoyl)oxy)-3-phenylpropanoate], the IC50 was 100 to 1000 nM.

In the case of `CCOC(=O)C(Cc1ccccn1)OC(=O)Nc1c2c(cc3c1CCC3)CCC2` (stereo not drawn) [Compound 18, Ethyl 2-(((1,2,3,5,6,7-hexahydro-s-indacen-4-yl)carbamoyl)oxy)-3-(pyridin-2-yl)propanoate], the IC50 was 100 to 1000 nM.

With `CCOC(=O)[C@@H](C)OC(=O)Nc1c2c(cc3c1CCC3)CCC2` [Compound 19, Ethyl (2R)-2-{[(1,2,3,5,6,7-hexahydro-s-indacen-4-yl)carbamoyl]oxy}propanoate], the IC50 lay within 1000 to 10000 nM.

Take `CC(C)OC(=O)COC(=O)Nc1c2c(cc3c1CCC3)CCC2` [Compound 20, Propan-2-yl 2-{[(1,2,3,5,6,7-hexahydro-s-indacen-4-yl)carbamoyl]oxy}acetate]: the IC50 lay in the range of 100 to 1000 nM.

As to `CCCOC(=O)COC(=O)Nc1c2c(cc3c1CCC3)CCC2` [Compound 21], the IC50 was in the range of 100 to 1000 nM.

As for `O=C(COC(=O)Nc1c2c(cc3c1CCC3)CCC2)OCC1CC1` [Compound 22, Cyclopropylmethyl 2-{[(1,2,3,5,6,7-hexahydro-s-indacen-4-yl)carbamoyl]oxy}acetate], the IC50 fell in the range of 100 to 1000 nM.

For `O=C(COC(=O)Nc1c2c(cc3c1CCC3)CCC2)OC1CCC1` [Compound 23, Cyclobutyl 2-{[(1,2,3,5,6,7-hexahydro-s-indacen-4-yl)carbamoyl]oxy}acetate], the IC50 lay within 100 to 1000 nM.

Take `CC(C)COC(=O)COC(=O)Nc1c2c(cc3c1CCC3)CCC2` [Compound 24, 2-methylpropyl 2-{[(1,2,3,5,6,7-hexahydro-s-indacen-4-yl)carbamoyl]oxy}acetate]: the IC50 lay within 100 to 1000 nM.

As to `CCOC(=O)[C@@H](Cc1ccc(C#N)cc1)OC(=O)Nc1c2c(cc3c1CCC3)CCC2` [Compound 25, Ethyl 3-(4-cyanophenyl)-2-{[(1,2,3,5,6,7-hexahydro-s-indacen-4-yl)carbamoyl]oxy}propanoate], the IC50 was 100 to 1000 nM.

For the compound `O=C(O)COC(=O)Nc1c2c(cc3c1CCC3)CCC2` [Compound 27, 2-{[(1,2,3,5,6,7-Hexahydro-s-indacen-4-yl)carbamoyl]oxy}acetic acid], the IC50 lay in the range of 1000 to 10000 nM.

With `CCOC(=O)COC(=O)Nc1c(CC)cc(C)cc1CC` [Compound 28, Ethyl 2-{[(2,6-diethyl-4-methylphenyl)carbamoyl]oxy}acetate], the IC50 lay in the range of 1000 to 10000 nM.

Take `COC(=O)COC(=O)Nc1c2c(cc3c1CCC3)CCC2` [Compound 29, Methyl 2-{[(1,2,3,5,6,7-hexahydro-s-indacen-4-yl)carbamoyl]oxy}acetate]: the IC50 lay in the range of 1000 to 10000 nM.

As to `CCOC(=O)[C@@H](CCc1ccccc1)OC(=O)Nc1c2c(cc3c1CCC3)CCC2` [Compound 30, Ethyl (2R)-2-{[(1,2,3,5,6,7-hexahydro-s-indacen-4-yl)carbamoyl]oxy}-4-phenylbutanoate], the IC50 fell in the range of 100 to 1000 nM.

On to `O=C(COC(=O)Nc1c2c(cc3c1CCC3)CCC2)OC1CCCC1` [Compound 32, Cyclopentyl 2-{[(1,2,3,5,6,7-hexahydro-s-indacen-4-yl)carbamoyl]oxy}acetate], for which the IC50 is 100 to 1000 nM.

As to `CCOC(=O)C(Cn1ccnc1)OC(=O)Nc1c2c(cc3c1CCC3)CCC2` (stereo not drawn) [Compound 33, Ethyl 2-{[(1,2,3,5,6,7-hexahydro-s-indacen-4-yl)carbamoyl]oxy}-3-(1H-imidazol-1-yl)propanoate], the IC50 lay in the range of 100 to 1000 nM.

For `CCOC(=O)COC(=O)Nc1c(C(C)C)cccc1C(C)C` [Compound 34, Ethyl 2-({[2,6-bis(propan-2-yl)phenyl]carbamoyl}oxy)acetate], the half-maximal inhibitory concentration (IC50) lay in the range of 1000 to 10000 nM.

In the case of `CCOC(=O)COC(=O)Nc1cc(C(F)(F)F)ccc1Cl` [Compound 35, Ethyl 2-({[2-chloro-5-(trifluoromethyl)phenyl]carbamoyl}oxy)acetate], the IC50 is over 10000 nM.

Turning to `CCOC(=O)COC(=O)Nc1cc(C)ccc1C` [Compound 37, Ethyl 2-{[(2,5-dimethylphenyl)carbamoyl]oxy}acetate], the IC50 lay in the range of 100 to 1000 nM.

Take `COCC(OC(=O)Nc1c2c(cc3c1CCC3)CCC2)C(=O)O` (stereo not drawn) [Compound 38, 2-{[(1,2,3,5,6,7-hexahydro-s-indacen-4-yl)carbamoyl]oxy}-3-methoxypropanoic acid]: the IC50 fell in the range of 1000 to 10000 nM.

For `O=C(COC(=O)Nc1c2c(cc3c1CCC3)CCC2)OC1CC1` [Compound 39, cyclopropyl 2-{[(1,2,3,5,6,7-hexahydro-s-indacen-4-yl)carbamoyl]oxy}acetate], the IC50 lay within 1000 to 10000 nM.

As to `O=C(Nc1c2c(cc3c1CCC3)CCC2)OC(Cn1cccn1)C(=O)O` (stereo not drawn) [Compound 40, 2-{[(1,2,3,5,6,7-hexahydro-s-indacen-4-yl)carbamoyl]oxy}-3-(1H-pyrazol-1-yl)propanoic acid], the IC50 lay in the range of 100 to 1000 nM.

As for `CCOC(=O)[C@@H](Cc1cccc(C#N)c1)OC(=O)Nc1c2c(cc3c1CCC3)CCC2` [Compound 41, Ethyl (2R)-3-(3-cyanophenyl)-2-{[(1,2,3,5,6,7-hexahydro-s-indacen-4-yl)carbamoyl]oxy}propanoate], the 50% inhibitory concentration (IC50) was 10 to 100 nM.

On to `CCOC(=O)C(Cc1cccc(-n2cccn2)c1)OC(=O)Nc1c2c(cc3c1CCC3)CCC2` (stereo not drawn) [Compound 42, Ethyl 2-{[(1,2,3,5,6,7-hexahydro-s-indacen-4-yl)carbamoyl]oxy}-3-[3-(1H-pyrazol-1-yl)phenyl]propanoate], for which the IC50 is 100 to 1000 nM.

Take `CCOC(=O)[C@@H](Cc1cccc(-n2cccn2)c1)OC(=O)Nc1c2c(cc3c1CCC3)CCC2` [Compound 43, Ethyl (2R)-2-{[(1,2,3,5,6,7-hexahydro-s-indacen-4-yl)carbamoyl]oxy}-3-[3-(1H-pyrazol-1-yl)phenyl]propanoate]: the IC50 fell in the range of 100 to 1000 nM.

Take `CCOC(=O)C(Cn1cccn1)OC(=O)Nc1c(F)cccc1F` (stereo not drawn) [Compound 44]: the IC50 fell in the range of 100 to 1000 nM.

As for `CCOC(=O)C(Cn1cccn1)OC(=O)Nc1ccccc1` (stereo not drawn) [Compound 45, Ethyl 2-[(phenylcarbamoyl)oxy]-3-(1H-pyrazol-1-yl)propanoate], the IC50 is over 10000 nM.
